Measurements from publication PMC10458458, “Characterization of Anticancer Effects of the Analogs of DJ4, a Novel Selective Inhibitor of ROCK and MRCK Kinases” (Pharmaceuticals, 2023).

Experiments:
Assay in all cases: NCI-60 screen (SRB)
Format in all cases: cell-based, human
[1] = system: OVCAR-8; conditions: OVCAR-8 (Ovarian Cancer), 10 µM, 48 h; negative = cell death vs time zero
Text: (§1) The selected active compounds were screened at NCI, as a part of In Vitro Cell Line Screening Project (IVCLSP), for their effect on cell growth in 60 different cancer cell lines. The 60 human cancer cell line panel included leukemia, melanoma, non-small cell lung cancer, colon, central nervous system (CNS), ovarian, renal, prostate, and breast cancer cell lines. The detailed procedure and applications of NCI-60 cell line screening can be found at https://dtp.cancer.gov/discovery_development/nci-60/default.htm (accessed on 9 January 2023). Briefly, cells were plated in 96-well plates and incubated for 24 h. One set of cells was fixed with trichloroacetic acid at time 0 h (Tz), and SRB (sulphorhodamine B) assays were performed to quantify the cells. The remaining set of cells were treated with 10 µM single concentration of each compound and incubated for 48 h (Te) after which the cells were fixed, and the SRB assays were performed. Data are presented as percent growth relative to the control as 100% according to the following calculations:
(§2) When Te >/= Tz. Growth(%)=Te−Tz/C−Tz∗100 and when Te < Tz. (1) Growth(%)=Te−Tz/Tz∗100
(§3) Values between 0–100 indicate cell growth, zero (0) indicates no cell growth, values < 0 indicate cell death.

[2] = system: CCRF-CEM; conditions: CCRF-CEM (Leukemia), 10 µM, 48 h; negative = cell death vs time zero
Text: as §1, §2, §3

[3] = system: SW-620; conditions: SW-620 (Colon Cancer), 10 µM, 48 h; negative = cell death vs time zero
Text: as §1, §2, §3

[4] = system: SN12C; conditions: SN12C (Renal Cancer), 10 µM, 48 h; negative = cell death vs time zero
Text: as §1, §2, §3

[5] = system: NCI-H226; conditions: NCI-H226 (Non-Small Cell Lung Cancer), 10 µM, 48 h; negative = cell death vs time zero
Text: as §1, §2, §3

[6] = system: SK-MEL-28; conditions: SK-MEL-28 (Melanoma), 10 µM, 48 h; negative = cell death vs time zero
Text: as §1, §2, §3

[7] = system: BT-549; conditions: BT-549 (Breast Cancer), 10 µM, 48 h; negative = cell death vs time zero
Text: as §1, §2, §3

[8] = system: KM12; conditions: KM12 (Colon Cancer), 10 µM, 48 h; negative = cell death vs time zero
Text: as §1, §2, §3

[9] = system: MCF7; conditions: MCF7 (Breast Cancer), 10 µM, 48 h; negative = cell death vs time zero
Text: as §1, §2, §3

[10] = system: T-47D; conditions: T-47D (Breast Cancer), 10 µM, 48 h; negative = cell death vs time zero
Text: as §1, §2, §3

[11] = system: HL-60(TB); conditions: HL-60(TB) (Leukemia), 10 µM, 48 h; negative = cell death vs time zero
Text: as §1, §2, §3

[12] = system: PC-3; conditions: PC-3 (Prostate Cancer), 10 µM, 48 h; negative = cell death vs time zero
Text: as §1, §2, §3

[13] = system: M14; conditions: M14 (Melanoma), 10 µM, 48 h; negative = cell death vs time zero
Text: as §1, §2, §3

[14] = system: A498; conditions: A498 (Renal Cancer), 10 µM, 48 h; negative = cell death vs time zero
Text: as §1, §2, §3

[15] = system: RXF 393; conditions: RXF 393 (Renal Cancer), 10 µM, 48 h; negative = cell death vs time zero
Text: as §1, §2, §3

[16] = system: K-562; conditions: 10 µM, 48 h; for percent cell growth: K-562 (Leukemia), negative = cell death vs time zero; for increase in cell number: K-562 (leukemia)
Text: as §1, §2, §3

[17] = system: SK-OV-3; conditions: SK-OV-3 (Ovarian Cancer), 10 µM, 48 h; negative = cell death vs time zero
Text: as §1, §2, §3

[18] = system: SF-295; conditions: SF-295 (CNS Cancer), 10 µM, 48 h; negative = cell death vs time zero
Text: as §1, §2, §3

[19] = system: NCI-H522; conditions: NCI-H522 (Non-Small Cell Lung Cancer), 10 µM, 48 h; negative = cell death vs time zero
Text: as §1, §2, §3

[20] = system: RPMI-8226; conditions: 10 µM, 48 h; for percent cell growth: RPMI-8226 (Leukemia), negative = cell death vs time zero; for increase in cell number: RPMI-8226 (leukemia)
Text: as §1, §2, §3

[21] = system: HOP-62; conditions: HOP-62 (Non-Small Cell Lung Cancer), 10 µM, 48 h; negative = cell death vs time zero
Text: as §1, §2, §3

[22] = system: SF-539; conditions: 10 µM, 48 h; for percent cell growth: SF-539 (CNS Cancer), negative = cell death vs time zero
Text: as §1, §2, §3

[23] = system: NCI-H322M; conditions: NCI-H322M (Non-Small Cell Lung Cancer), 10 µM, 48 h; negative = cell death vs time zero
Text: as §1, §2, §3

[24] = system: OVCAR-5; conditions: OVCAR-5 (Ovarian Cancer), 10 µM, 48 h; negative = cell death vs time zero
Text: as §1, §2, §3

[25] = system: HS 578T; conditions: HS 578T (Breast Cancer), 10 µM, 48 h; negative = cell death vs time zero
Text: as §1, §2, §3

[26] = system: OVCAR-3; conditions: OVCAR-3 (Ovarian Cancer), 10 µM, 48 h; negative = cell death vs time zero
Text: as §1, §2, §3

[27] = system: IGROV1; conditions: IGROV1 (Ovarian Cancer), 10 µM, 48 h; negative = cell death vs time zero
Text: as §1, §2, §3

| SMILES | percent cell growth [1] [%] | percent cell growth [2] [%] | percent cell growth [3] [%] | percent cell growth [4] [%] | percent cell growth [5] [%] | percent cell growth [6] [%] | percent cell growth [7] [%] | percent cell growth [8] [%] | percent cell growth [9] [%] | percent cell growth [10] [%] | percent cell growth [11] [%] | percent cell growth [12] [%] | percent cell growth [13] [%] | percent cell growth [14] [%] | percent cell growth [15] [%] | percent cell growth [16] [%] | percent cell growth [17] [%] | percent cell growth [18] [%] | percent cell growth [19] [%] | percent cell growth [20] [%] | also measured |
| --- | --- | --- | --- | --- | --- | --- | --- | --- | --- | --- | --- | --- | --- | --- | --- | --- | --- | --- | --- | --- | --- |
| Cl.O=C1NC(=NCCc2ccccc2)SC1=Cc1c[nH]c2ncccc12 (mixture of isomers) [DJ4-HCl] | 9.7 | 5.5 | 7.8 | 33.5 | 22.4 | 0.8 | 5.3 | 9.3 | 2.0 | −1.3 | −6.6 | 19.2 | 31.7 | −21.3 | −30.1 | 28.5 | 2.1 | 18.7 | 4.3 | 38.7 | percent cell growth [21]: −3.0%; percent cell growth [22]: −37.2%; percent cell growth [23]: 19.6%; percent cell growth [24]: 18.1%; percent cell growth [25]: 8.8%; percent cell growth [26]: 3.4%; percent cell growth [27]: 25.6% |
| O=C1N/C(=N\CCc2ccccc2)S/C1=C/c1c[nH]c2ncccc12 [DJ4] | 14.0 | 9.9 | 9.9 | 15.9 | 3.3 | 16.0 | −7.9 | 13.1 | 4.0 | 2.6 | 6.8 | 25.9 | 29.9 | −7.6 | −20.2 | 29.9 | 27.0 | 22.6 | 26.6 | 39.2 | percent cell growth [21]: 19.9%; percent cell growth [22]: 0.4%; percent cell growth [23]: 5.2%; percent cell growth [24]: 37.8%; percent cell growth [25]: 8.8%; percent cell growth [26]: 5.6%; percent cell growth [27]: 14.0% |
| C=CC/N=C1\NC(=O)/C(=C\c2c[nH]c3ncccc23)S1 [DJ-Allyl] | 10.7 | 7.1 | 7.4 | 24.0 | 10.7 | −2.4 | −29.5 | 7.9 | 3.5 | −8.7 | −14.5 | 12.6 | 24.5 | −34.5 | −41.3 | 42.1 | −7.0 | 13.0 | −5.3 | 42.7 | increase in cell number [16]: ~ 40%; increase in cell number [20]: ~ 40%; percent cell growth [21]: −10.8%; percent cell growth [22]: −66.2%; reduction in cell number ([22]; SF-539 (CNS)): 60%; percent cell growth [23]: 10.2%; percent cell growth [24]: 5.3%; percent cell growth [25]: −15.0%; percent cell growth [26]: −7.0%; percent cell growth [27]: 17.0% |
| CC/N=C1\NC(=O)/C(=C\c2c[nH]c3ncccc23)S1 [DJE4] | 6.3 | 3.0 | 6.5 | 12.6 | 10.8 | −17.2 | −50.4 | 6.2 | 4.0 | −9.7 | −22.4 | 2.3 | 0.7 | −54.2 | −39.3 | 26.3 | −10.3 | 5.0 | −28.6 | 29.1 | increase in cell number [16]: 26%; increase in cell number [20]: 29%; percent cell growth [21]: −26.5%; percent cell growth [22]: −64.2%; percent cell growth [23]: 5.8%; percent cell growth [24]: 8.7%; percent cell growth [25]: −15.1%; percent cell growth [26]: −2.1%; percent cell growth [27]: 21.7% |
